Reference: ChEMBL document CHEMBL4840333, “Ulleunganilines A-C, Trichostatin Analogues Bearing a Modified Side Chain from Streptomyces sp. 13F051” (J Nat Prod, 2021)
Activity calls are given as the source filed them. The calls are words filed in the database; no cut-off is given here.

Assays:
[1] = tested on: U2OS; assay: Cytotoxicity against human U2OS cells assessed as reduction in cell viability incubated for 72 hrs by EZ-Cytox colorimetric assay; type: functional, cell-based
[2] = tested on: SW480; assay: Cytotoxicity against human SW480 cells assessed as reduction in cell viability incubated for 72 hrs by EZ-Cytox colorimetric assay; type: functional, cell-based; details: for IC50: SW480, 72 h
[3] = target: Histone deacetylase; assay: Inhibition of HDAC in human HeLa nuclear extract using Fluor de Lys as substrate incubated for 20 mins by fluorometric assay; type: subcellular, Nucleus
[4] = tested on: HeLa; assay: Cytotoxicity against human HeLa cells assessed as reduction in cell viability incubated for 72 hrs by EZ-Cytox colorimetric assay; type: functional, cell-based
[5] = tested on: A549; assay: Cytotoxicity against human A549 cells assessed as reduction in cell viability incubated for 72 hrs by EZ-Cytox colorimetric assay; type: functional, cell-based; details: for IC50: A549, 72 h
[6] = tested on: MDA-MB-231; assay: Cytotoxicity against human MDA-MB-231 cells assessed as reduction in cell viability incubated for 72 hrs by EZ-Cytox colorimetric assay; type: functional, cell-based; details: for IC50: MDA-MB-231, 72 h

SMILES | IC50 [3] [µM] | IC50 [1] [µM] | IC50 [2] [µM] | IC50 [4] [µM] | IC50 [5] [µM] | IC50 [6] [µM] | other results
CC(/C=C/C(=O)NO[C@@H]1O[C@H](CO)[C@@H](O)[C@H](O)[C@H]1O)=C\[C@@H](C)C(=O)c1ccc(N(C)C)cc1 | 23.63 | 94.9 | 72 |  |  |  | 
CC(/C=C/C(=O)NO)=C\[C@@H](C)C(=O)c1ccc(N(C)C)cc1 |  |  |  |  |  |  | Activity [4]: Active; Activity [1]: Active; Activity [2]: Active; Activity [5]: Active; Activity [6]: Active
CC(/C=C/C(=O)N[C@@H](CCC(N)=O)C(=O)O)=C\[C@@H](C)C(=O)c1ccc(N(C)C)cc1 | > 100 |  |  |  |  |  | 
C[C@H](C[C@@H](C)C(=O)c1ccc(N(C)C)cc1)C(=O)O | 39.67 | > 100 | > 100 | > 100 | > 100 | > 100 | 
CC(/C=C/C(N)=O)=C\[C@@H](C)C(=O)c1ccc(N(C)C)cc1 | > 100 |  |  |  |  |  | 
CNC(=O)/C=C/C(C)=C/[C@@H](C)C(=O)c1ccc(N(C)C)cc1 | > 100 |  |  |  |  |  | 
CC(/C=C/C(=O)O)=C\[C@@H](C)C(=O)c1ccc(N(C)C)cc1 [TRICHOSTATIC ACID] | 95.13 |  |  |  |  |  | 

Continued, in another order:

IC50 [3] [µM] | SMILES | IC50 [1] [µM] | IC50 [2] [µM] | IC50 [4] [µM] | IC50 [5] [µM] | IC50 [6] [µM] | other results
> 100 | CNc1ccc(C(=O)[C@H](C)C[C@@H](C)C(=O)O)cc1 | > 100 | > 100 | > 100 | > 100 | > 100 | 
> 100 | CC(/C=C/C(=O)N[C@@H](CCC(=O)O)C(=O)O)=C\[C@@H](C)C(=O)c1ccc(N(C)C)cc1 |  |  |  |  |  | 
19.96 | CC(/C=C/C(=O)Nc1ccc(C(=O)N[C@@H](CCC(N)=O)C(=O)O)cc1)=C\[C@@H](C)C(=O)c1ccc(N(C)C)cc1 | > 100 | > 100 | > 100 | > 100 | > 100 | 
